Test results taken from patent US20060159631A1, “Compositions and methods for preventing dental stain” (SMITHKLINE BEECHAM CORPORATION, priority 2003, published 2006).

Assay: Coffee stain challenge on saliva pellicle-treated HAP discs, rated by visual inspection
Conditions: subjective index of 1 to 10 (1 representing greatest stain), coffee 24 hours, None = 2.0
Description: In a series of experiments, HAP discs were first treated with saliva to generate an artificial pellicle. […] Following a second rinse, the active-treated discs were immersed in a concentrated solution of coffee for a period of 24 hours in order to simulate a dietary stain challenge. After rinsing to remove excess coffee solution, the discs were dried and rated for stain by visual inspection. Using a subjective index of 1 to 10 (1 representing greatest stain), stain intensity is tabluated below.

In the case of O=P(O)(O)OP(=O)(O)OP(=O)(O)O [STP], the “Stain Intensity” value (10% (w/w) active) was 5.5.
With “pegulated lauryl phosphate ether [DLP-10]” the “Stain Intensity” value (2% (w/w) active) was 3.5 and the “Stain Intensity” value (5% (w/w) active) was 4.0.
